Reference: US4352803A, “Novel naphthyridine derivatives, intermediates thereof, processes for preparation thereof, and use thereof” (Dainippon Pharmaceutical Co., Ltd., priority 1978, dated 1982)
In brackets after ≈: the same amount, converted by molar mass. Entries after “also recorded” stand apart in the source; their conditions may differ. Where two headings read alike, the source gives them in different places.

What was measured:
[1] = system: Salmonella typhimurium 8-9; experiment: In vitro antibacterial activity (MIC), Salmonella typhimurium 8-9; assay type: cell-based; conditions: Salmonella enterica, read-out: minimum inhibitory concentration (MIC)
Description: (§1) (MIC) (μg/ml) Method; Chemotherapy, 22(6), 1126 (1974)

[2] = system: Streptococcus faecalis P-2473; experiment: In vitro antibacterial activity (MIC), Streptococcus faecalis P-2473; assay type: cell-based; conditions: Enterococcus faecalis
Description: as §1

[3] = system: Staphylococcus aureus No. 50774; experiment: in vivo efficacy against systemic infection in mice, Staphylococcus aureus No. 50774; conditions: NO.50774, in Mus musculus, po, 336 h
Experimental: Male mice (ddY) weighing about 20 g
Intravenous infection with (about
5 × 10^8 cells/mouse) of a bacterial
(§2) Twice, about 5 minutes and 6 hours after infection.

[4] = system: Pseudomonas aeruginosa No. 12; experiment: in vivo efficacy against systemic infection in mice, Pseudomonas aeruginosa No. 12; conditions: NO.12, in Mus musculus, po, 168 h
Experimental: Male mice (ddY) weighing about 20 g
(3) Pseudomonas aeruginosa No. 12;
(about 5 × 10^3 cells/mouse) of a bacterial
(§3) suspension in trypto-soy broth with 4% mucin.
as §2
The numerals in the table show ED50 (mg/kg). ED50 values were

[5] = system: Serratia marcescens IFC 3736; experiment: In vitro antibacterial activity (MIC), Serratia marcescens IFC 3736; assay type: cell-based
Description: as §1

[6] = system: Escherichia coli P-140a; experiment: In vitro antibacterial activity (MIC), Escherichia coli P-140a; assay type: cell-based; conditions: Escherichia coli, read-out: minimum inhibitory concentration (MIC)
Description: as §1

[7] = system: Shigella flexneri 2a; experiment: In vitro antibacterial activity (MIC), Shigella flexneri 2a; assay type: cell-based; conditions: read-out: minimum inhibitory concentration (MIC)
Description: as §1

[8] = system: Pseudomonas aeruginosa Tsuchijima; experiment: In vitro antibacterial activity (MIC), Pseudomonas aeruginosa Tsuchijima; assay type: cell-based; conditions: Pseudomonas aeruginosa Tsuchijima; read-out: minimum inhibitory concentration (MIC)
Description: as §1

[9] = system: Escherichia coli P-5101; experiment: in vivo efficacy against systemic infection in mice, Escherichia coli P-5101; conditions: P5101, in Mus musculus, po, 168 h
Experimental: Male mice (ddY) weighing about 20 g
Intraperitoneal infection with (about
9 × 10^6 cells/mouse) of a bacterial
as §3, §2

[10] = system: Shigella flexneri 4a P-330; experiment: In vitro antibacterial activity (MIC), Shigella flexneri 4a P-330; assay type: cell-based; conditions: 4AP330, read-out: minimum inhibitory concentration (MIC)
Description: as §1

[11] = system: Corynebacterium pyogenes C-21; experiment: In vitro antibacterial activity (MIC), Corynebacterium pyogenes C-21; assay type: cell-based; conditions: Rhodococcus (subgen. Prescottella) equi, C21; Corynebacterium pyogenes C-21; read-out: minimum inhibitory concentration (MIC)
Description: as §1

[12] = system: Streptococcus pyogenes 65A; experiment: In vitro antibacterial activity (MIC), Streptococcus pyogenes 65A; assay type: cell-based; conditions: Streptococcus pyogenes 65A; read-out: minimum inhibitory concentration (MIC)
Description: as §1

[13] = in vivo
Experimental: The number of dead mice was counted after 7 days, and the value of median lethal dose (LD50, mg/kg) was calculated in accordance with the Behrens-Kaerber method.

[14] = system: Gram-positive bacteria and Gram-negative bacteria; experiment: In vitro antibacterial activity against 19 strains of bacteria (overall); assay type: cell-based; conditions: comparisons are with compounds of the invention
Description: as §1

[15] = system: Escherichia coli P-5101; experiment: In vitro antibacterial activity (MIC), Escherichia coli P-5101; assay type: cell-based; conditions: P5101; Escherichia coli P-5101; read-out: minimum inhibitory concentration (MIC)
Description: as §1

[16] = system: Staphylococcus aureus 209P JC-1; experiment: In vitro antibacterial activity (MIC), Staphylococcus aureus 209P JC-1; assay type: cell-based; conditions: Staphylococcus aureus 209P JC-1; read-out: minimum inhibitory concentration (MIC)
Description: as §1

[17] = system: Pseudomonas aeruginosa No. 12; experiment: In vitro antibacterial activity (MIC), Pseudomonas aeruginosa No. 12; assay type: cell-based; conditions: Pseudomonas aeruginosa No. 12; read-out: minimum inhibitory concentration (MIC)
Description: as §1

[18] = system: Enterobacter cloacae P-2540; experiment: In vitro antibacterial activity (MIC), Enterobacter cloacae P-2540; assay type: cell-based
Description: as §1

[19] = system: Escherichia coli NIHJ JC-2; experiment: In vitro antibacterial activity (MIC), Escherichia coli NIHJ JC-2; assay type: cell-based; conditions: Escherichia coli, NIHJJC2, read-out: minimum inhibitory concentration (MIC)
Description: as §1

[20] = system: Proteus morganii Kono; experiment: In vitro antibacterial activity (MIC), Proteus morganii Kono; assay type: cell-based; conditions: Morganella morganii, read-out: minimum inhibitory concentration (MIC)
Description: as §1

[21] = system: Proteus mirabilis P-2381; experiment: In vitro antibacterial activity (MIC), Proteus mirabilis P-2381; assay type: cell-based; conditions: P2381; Proteus mirabilis P-2381; read-out: minimum inhibitory concentration (MIC)
Description: as §1

[22] = system: Salmonella enteritidis No. 1891; experiment: In vitro antibacterial activity (MIC), Salmonella enteritidis No. 1891; assay type: cell-based; conditions: Salmonella enterica, read-out: minimum inhibitory concentration (MIC)
Description: as §1

[23] = system: Klebsiella pneumoniae No. 13; experiment: In vitro antibacterial activity (MIC), Klebsiella pneumoniae No. 13; assay type: cell-based
Description: as §1

[24] = system: Staphylococcus aureus No. 50774; experiment: In vitro antibacterial activity (MIC), Staphylococcus aureus No. 50774; assay type: cell-based; conditions: Staphylococcus aureus No. 50774; read-out: minimum inhibitory concentration (MIC)
Description: as §1

[25] = system: Gram-positive and Gram-negative bacteria; experiment: in vivo therapeutic efficacy against systemic infections in mice (overall); parameters: species or system mice (ddY); conditions: systemic infections with Gram-positive and Gram-negative bacteria
[26] = system: Pseudomonas aeruginosa No. 12; experiment: in vivo efficacy on the ascending kidney infection in mice; parameters: species or system mice (ddY-S); conditions: 120 h; ascending kidney infection with Pseudomonas aeruginosa No. 12; po; mice
Experimental: Female mice (ddY-S) weighing 22 to 30 g were anesthetized by intravenous injection of sodium pentobarbital at a dose of 50 mg/kg. Through a small suprapubic incision, the urinary bladder was exposed and then infected by injecting 0.1 ml of a 1:10,000 dilution of Pseudomonas aeruginosa No. 12 cultured for 20 hours in trypto-soy broth, using 0.25 ml syringe with 0.25 mm needle. The mice were restrained from drinking water for a period from 1 day before to 1 day after the infection and treated twice a day for 3 days starting on the day of infection. On the 5th day after infection, the kidneys were harvested for the detection of the bacteria, transversely bisected and stamped on King A Agar, which were incubated at 37° C. overnight. No bacterial finding in the kidneys was regarded as protected from the ascending kindey infection. ED50 values were calculated by probit analysis.

[27] = P2473, Streptococcus faecalis P-2473, read-out: minimum inhibitory concentration (MIC)
[28] = IFC3736, Serratia marcescens IFC 3736, read-out: minimum inhibitory concentration (MIC)
[29] = Klebsiella pneumoniae No. 13, read-out: minimum inhibitory concentration (MIC)
[30] = Enterobacter cloacae, P2540, read-out: minimum inhibitory concentration (MIC)
[31] = Salmonella enteritidis No. 1891

CCn1cc(C(=O)O)c(=O)c2cc(F)c(N3CCN(C)CC3)nc21 [Compound B, 1-Ethyl-6-fluoro-1,4-dihydro-7-(4-methyl-1-piperazinyl)-4-oxo-1,8-naphthyridine-3-carboxylic acid]
MIC ([1]; Salmonella typhimurium 8-9): 0.2 µg/mL (≈ 0.598 µM) | MIC [2, 27]: 12.5 µg/mL (≈ 37.4 µM) | ED50 [3]: 4.8 mg/kg | ED50 [4]: 10.6 mg/kg | MIC [5, 28]: 1.56 µg/mL (≈ 4.67 µM) | MIC [6]: 0.39 µg/mL (≈ 1.17 µM) | MIC [7]: 0.39 µg/mL (≈ 1.17 µM) | MIC [8]: 1.56 µg/mL (≈ 4.67 µM) | ED50 [9]: 1.2 mg/kg | MIC [10]: 0.78 µg/mL (≈ 2.33 µM) | MIC [11]: 1.56 µg/mL (≈ 4.67 µM) | MIC [12]: 6.25 µg/mL (≈ 18.7 µM) | toxicity (in words) ([13]; acute, oral, mice): extremely high toxicity | LD50 at 168 h ([13]; mouse, in vivo, po): 210 mg/kg | antibacterial activity (in words) [14]: equivalent or higher antibacterial activity | MIC [15]: 0.2 µg/mL (≈ 0.598 µM) | MIC [16]: 1.56 µg/mL (≈ 4.67 µM) | MIC [17]: 3.13 µg/mL (≈ 9.36 µM) | MIC ([18]; P2540, Enterobacter cloacae P-2540, read-out: minimum inhibitory concentration (MIC)): 0.39 µg/mL (≈ 1.17 µM) | MIC [19]: 0.39 µg/mL (≈ 1.17 µM) | MIC [20]: 0.78 µg/mL (≈ 2.33 µM) | MIC [21]: 1.56 µg/mL (≈ 4.67 µM) | MIC ([22]; ENTERITIDIS): 0.1 µg/mL (≈ 0.299 µM) | MIC [23, 29]: 0.39 µg/mL (≈ 1.17 µM) | MIC [24]: 1.56 µg/mL (≈ 4.67 µM)

CCn1cc(C(=O)O)c(=O)c2ccc(N3CCNCC3)nc21 [Compound A, 1-Ethyl-1,4-dihydro-4-oxo-7-(1-piperazinyl)-1,8-naphthyridine-3-carboxylic acid]
MIC ([1]; TYPHIMURIUM): 6.25 µg/mL (≈ 20.7 µM) | MIC [2, 27]: > 100 µg/mL | ED50 [3]: > 100 mg/kg | ED50 [4]: > 200 mg/kg | MIC ([5]; Serratia marcescens, IFC3736, read-out: minimum inhibitory concentration (MIC)): 12.5 µg/mL (≈ 41.3 µM) | therapeutic effect / in vivo antibacterial activity (in words) [25]: clearly inferior | MIC [6]: 6.25 µg/mL (≈ 20.7 µM) | MIC [7]: 6.25 µg/mL (≈ 20.7 µM) | MIC [8]: 25 µg/mL (≈ 82.7 µM) | MIC [10]: 12.5 µg/mL (≈ 41.3 µM) | MIC [11]: 50 µg/mL (≈ 165 µM) | MIC [12]: 50 µg/mL (≈ 165 µM) | antibacterial activity (in words) [14]: much inferior antibacterial activity; also recorded: clearly inferior | MIC [15]: 3.13 µg/mL (≈ 10.4 µM) | MIC [16]: 25 µg/mL (≈ 82.7 µM) | MIC [17]: 25 µg/mL (≈ 82.7 µM) | MIC [18, 30]: 6.25 µg/mL (≈ 20.7 µM) | MIC [19]: 6.25 µg/mL (≈ 20.7 µM) | MIC [20]: 6.25 µg/mL (≈ 20.7 µM) | MIC [21]: 25 µg/mL (≈ 82.7 µM) | MIC [22, 31]: 1.56 µg/mL (≈ 5.16 µM) | MIC ([23]; Klebsiella pneumoniae, NO.13, read-out: minimum inhibitory concentration (MIC)): 12.5 µg/mL (≈ 41.3 µM) | MIC [24]: 50 µg/mL (≈ 165 µM)

CCn1cc(C(=O)O)c(=O)c2cc(F)c(N3CCNCC3)cc21 [Compound D, 1-Ethyl-6-fluoro-1,4-dihydro-4-oxo-7-(1-piperazinyl)quinoline-3-carboxylic acid]
MIC ([1]; Salmonella typhimurium 8-9): 0.05 µg/mL (≈ 0.157 µM) | MIC ([2]; P2473, read-out: minimum inhibitory concentration (MIC)): 3.13 µg/mL (≈ 9.8 µM) | ED50 [3]: 21.9 mg/kg | ED50 [4]: 15.5 mg/kg | MIC [5, 28]: 0.2 µg/mL (≈ 0.626 µM) | MIC [6]: 0.1 µg/mL (≈ 0.313 µM) | MIC [7]: 0.1 µg/mL (≈ 0.313 µM) | MIC [8]: 0.39 µg/mL (≈ 1.22 µM) | ED50 [9]: 4.7 mg/kg | MIC [10]: 0.2 µg/mL (≈ 0.626 µM) | MIC [11]: 0.78 µg/mL (≈ 2.44 µM) | MIC [15]: 0.05 µg/mL (≈ 0.157 µM) | ED50 [26]: 16.1 mg/kg | MIC [16]: 0.39 µg/mL (≈ 1.22 µM) | MIC [17]: 0.78 µg/mL (≈ 2.44 µM) | MIC [18, 30]: 0.1 µg/mL (≈ 0.313 µM) | MIC [19]: 0.1 µg/mL (≈ 0.313 µM) | MIC [20]: 0.1 µg/mL (≈ 0.313 µM) | MIC [21]: 0.2 µg/mL (≈ 0.626 µM) | MIC [22, 31]: 0.05 µg/mL (≈ 0.157 µM) | MIC [23, 29]: 0.2 µg/mL (≈ 0.626 µM) | MIC [24]: 0.78 µg/mL (≈ 2.44 µM)
